Literature values in US20230025663A1, “NANOFORMULATION WITH DIVERSE FUNCTIONAL MOLECULES FROM TURMERIC AND PROCESS FOR PREPARATION OF THE SAME” (ZEROHARM SCIENCES PRIVATE LIMITED, priority 2021, published 2023).

Conditions: in vivo

COc1cc(/C=C/C(=O)CC(=O)/C=C/c2ccc(O)c(OC)c2)ccc1O [curcumin]
bioavailability: ~1%
